In US11965122B2, “Method for visually enhancing the experience of an audience during a performance” (PROLUME, LTD., priority 2012, dated 2024):

How the values were obtained:
[1] = test system: calcium activated photoprotein (CAP); details: cited from earlier work; for RLC*: relative to native = 1.00; for Relative Intensity †: relative to native = 1
Rabbit conjunctiva = test: Coelenterazine applied directly in Rabbit conjunctiva; assay type: in vivo; details: multiple sets applied directly in Rabbit conjunctiva, even at high concentrations
From the text: Denuded and scratched corneal surfaces should release more calcium then a sealed intact healthy cornea and a CAP may be used alone or in conjunction with fluorescein dye to reveal the exact location of the foreign body or severity of the ocular corneal scratch.

[2] = Brightness of ultraviolet producing Coelenterazine analog
From the text: Diagnosis of conjunctiva pathology and corneal scratches and other acute ocular emergencies such as foreign objects is best performed using an ultraviolet lamp and fluorescein dye. However there are situations, such as camping, or in poorer nations where electricity and ultraviolet lamps are not available. Another embodiment of this invention is a kit containing fluorescein dye, and a CARP manufactured using a ultraviolet producing Coelenterazine analog such as 400a or better because it is much brighter, is methoxy-eCoelenterazine analog contained and stabilized within a freeze dried CARP which can be used for eye examinations in the field.

[3] = test system: Renilla muelleri Luciferase; test: Luminescent activity of Renilla muelleri Luciferase with Coelenterazine analogues; assay type: biochemical; details: integrated over 10 sec
From the text: FIG. 21 is luminescent activity of Renilla muelleri Luciferase with methoxy eCTZ and methoxy eCTZf.

| Molecule | Half-Rise Time ‡ [1] | RLC* [1] | Relative Intensity † [1] | ocular injury (Rabbit conjunctiva) | duration of light emission ([1]; CAP manufactured with the analog, delayed spring-opening, over tens of minutes) | brightness compared with 400a [2] | light-output relative to methoxy eCTZf [3] |
| --- | --- | --- | --- | --- | --- | --- | --- |
| Oc1ccc(Cc2nc3c(Cc4ccccc4)nc(-c4ccc(O)cc4)cn3c2O)cc1 [Coelenterazine] | 6 to 30 ms | 1.00 | 1 | failed to produce any ocular injury |  |  |  |
| O=c1c(Cc2ccc(O)cc2)nc2c(CC3CCCC3)[nH]c(-c3ccc(O)cc3)cn1-2 [cp] | 2 to 5 ms | 0.63 | 28 |  |  |  |  |
| O=c1c(Cc2ccc(F)cc2)nc2c(Cc3ccccc3)[nH]c(-c3ccc(O)cc3)cn1-2 [f] | 6 to 30 ms | 0.80 | 20 |  |  |  |  |
| O=c1c(Cc2ccccc2)nc2c(Cc3ccccc3)[nH]c(-c3ccc(O)cc3)cn1-2 [h] | 6 to 30 ms | 0.75 | 16 |  |  |  |  |
| O=c1c(Cc2ccccc2)nc2c(CC3CCCC3)[nH]c(-c3ccc(O)cc3)cn1-2 [hcp] | 2 to 5 ms | 0.65 | 500 |  |  |  |  |
| Coelenterazine-Iodide |  |  |  |  | prolongs light emission |  |  |
| Methoxy-e-Coelenterazine [Methoxy eCTZ] |  |  |  |  |  | much brighter | approx. two-fold |
